We go through 14 compounds from patent US20230219965A1 (KSQ Therapeutics, Inc., priority 2020, published 2023).

The target in one data set is USP1/UAF1 enzyme (Homo sapiens, UniProt O94782). Briefly: USP1/UAF1 deubiquitination assay (ubiquitin-rhodamine 110 substrate). The class given is biochemical. To be noted: read-out: USP1 IC50 (Ub-Rho). The essentials:
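Cleavage of 150 nM ubiquitin-rhodamine 110 by 0.05 nM USP1/UAF1 was followed as fluorescence (Ex480/Em540, kinetic, 30 min) in Tris-HCl pH 7.8 buffer with EDTA, BSA, DTT and Tween-20. Compounds, top 10 μM, were preincubated with enzyme 10 min; % inhibition against no-enzyme and DMSO wells gave four-parameter IC50s.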

A short description of data set [1]: Liver microsomal metabolic stability, rat liver microsomes (RLM). To be noted: rat, liver microsomes, t1/2 (min) in RLM, 1 μM compound, 1 mg/mL microsomes, NADPH. In general terms: Liver microsomes are vesicles of endoplasmic reticulum, rich in cytochrome P450 enzymes.
Data set [2] is described as follows: ADME solubility determination in PBS at pH 2.0 and pH 7.4. Format: physicochemical. The conditions noted are these: for solubility at 24 h: phosphate buffered saline, 25 °C, thermodynamic from solid. The essentials: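 Solubility was read by LC-MS/MS on centrifuged supernatants, calibrated to a known-concentration standard and corrected for dilution. Compound, dried down from 10 mM DMSO stock, was equilibrated 24 h at 25° C with shaking in PBS at pH 2.0 or pH 7.4.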

Data set [3] relates to Ub-PCNA levels in the nucleus of ES2 cells (USP1 activity). Briefly: ES2 Ub-PCNA immunofluorescence (IF) assay. The conditions noted are these: ES2 cells, 3 hours, Ub-PCNA immunofluorescence, read-out: USP1 IC50 (Ub-PCNA). Format: cell-based. The procedure:
USP1 is a deubiquitinating enzyme that removes ubiquitin from mono-ubiquitinated Proliferating Cell Nuclear Antigen (Ub-PCNA). The levels of Ub-PCNA in the nucleus of cells can be used to assess the activity of USP1. An immunofluorescence assay can be established to monitor Ub-PCNA levels in the ovarian cancer cell line, ES2.
An assay can be performed by first plating 5000 ES2 cells per well in black 96 well plates (Corning #3904) and then incubating overnight at 37° C. and 5% CO2. Compounds, resuspended in DMSO, can be added to the cells, to a final DMSO concentration of 0.3%. Plates can be incubated at 37° C. and 5% CO2 for 3 hours.
Cells can be then fixed and stained by first removing the media from each plate and fixing the cells with −20° C. methanol for 5 minutes at room temperature. Fixation plates can be washed with Tris buffered saline with tween (Boston Bioproducts #IBB-855) 5 times for 5 minutes each. Plates can be blocked for 1 hour with 50 μl of Odyssey blocking buffer (Licor #327-50000) at room temperature with rocking. Block can be removed from all wells and 50 μl of primary antibody was added to each well. Ub-PCNA ab (Cell Signaling Technology #13439) can be diluted at 1:400 in Odyssey blocking buffer. Plates can be sealed and incubated overnight at 4° C. Primary antibodies can be removed from the plates and plates can be washed with Tris buffered saline with tween 5 times for 5 minutes. Plates can be stained for 1 hour at room temperature with rocking with 50 μl of secondary antibodies diluted 1:10,000 in Odyssey blocking buffer at room temperature (anti-rabbit Alexa 488). Antibodies can be removed from the plates and plates can be washed with Tris buffered saline with tween 3 times for 5 minutes. Plates can be washed once with DAPI (Chemometec #910-3012) stain diluted 1:5000 (Stock solution of 500 μg/ml) in tris buffered saline with tween for 5 minutes. DAPI stain can be removed and plates can be washed one additional time for 5 minutes with tris buffered saline with tween. Wash can be removed from the plate and 100 μl tris buffered saline with tween can be added back to all wells, Plates can be sealed with Foil seals or black plate seals and plates can be stored at 4° C. until they can be imaged.
Imaging of the plates can be performed by first locating the nuclei using the DAPI stain. A mask can be created by drawing a circle slightly smaller than each nucleus. Ub-PCNA intensities can be measured for each individual nucleus counted. A histogram of all Ub-PCNA nuclear intensities measured in untreated wells can be generated and a 95% cutoff can be established. This 95% cutoff can be used to determine the number of Positive cells that have Ub-PCNA values higher than the 95% cutoff. The number of positive cells can be expressed as a percentage by dividing by the total number of cells in the well. This percent positive value can be used to graph all data and to determine AC50 values.
USP1 is a deubiquitinating enzyme that removes ubiquitin from mono-ubiquitinated
Proliferating Cell Nuclear Antigen (Ub-PCNA). The levels of Ub-PCNA in the nucleus of cells was used to assess the activity of USP1. An immunofluorescence assay was established to monitor Ub-PCNA levels in the ovarian cancer cell line, ES2.
This assay was performed by first plating 5000 ES2 cells per well in black 96 well plates (Corning #3904) and then incubated overnight at 37° C. and 5% CO2. Compounds, resuspended in DMSO, were added to the cells, to a final DMSO concentration of 0.3%. Plates were incubated at 37° C. and 5% CO2 for 3 hours.
Cells were then fixed and stained by first removing the media from each plate and fixing the cells with −20° C. methanol for 5 minutes at room temperature. Following fixation plates were washed with Tris buffered saline with tween (Boston Bioproducts ABB-855) 5 times for 5 minutes each. Plates were blocked for 1 hour with 50μ.1 of Odyssey blocking buffer (Licor #327-50000) at room temperature with rocking. […]

Data set [4] in a line: Liver microsomal metabolic stability, human liver microsomes (HLM). To be noted: human, liver microsomes.
Where [5] appears, read: pH 2, aqueous buffer, PBS pH 2.0, 25° C., read-out: Solubility at pH 2.0.
The mark [6] stands for this setting: pH 7.4, aqueous buffer, PBS pH 7.4, 25° C., read-out: Solubility at pH 7.4.

The structures appear in SMILES notation. Read-outs that look alike come from different tables or passages of the source. A value given as a limit tells only on which side of the number the result lay.

Chain of USP1/UAF1 enzyme (O94782 whole entry): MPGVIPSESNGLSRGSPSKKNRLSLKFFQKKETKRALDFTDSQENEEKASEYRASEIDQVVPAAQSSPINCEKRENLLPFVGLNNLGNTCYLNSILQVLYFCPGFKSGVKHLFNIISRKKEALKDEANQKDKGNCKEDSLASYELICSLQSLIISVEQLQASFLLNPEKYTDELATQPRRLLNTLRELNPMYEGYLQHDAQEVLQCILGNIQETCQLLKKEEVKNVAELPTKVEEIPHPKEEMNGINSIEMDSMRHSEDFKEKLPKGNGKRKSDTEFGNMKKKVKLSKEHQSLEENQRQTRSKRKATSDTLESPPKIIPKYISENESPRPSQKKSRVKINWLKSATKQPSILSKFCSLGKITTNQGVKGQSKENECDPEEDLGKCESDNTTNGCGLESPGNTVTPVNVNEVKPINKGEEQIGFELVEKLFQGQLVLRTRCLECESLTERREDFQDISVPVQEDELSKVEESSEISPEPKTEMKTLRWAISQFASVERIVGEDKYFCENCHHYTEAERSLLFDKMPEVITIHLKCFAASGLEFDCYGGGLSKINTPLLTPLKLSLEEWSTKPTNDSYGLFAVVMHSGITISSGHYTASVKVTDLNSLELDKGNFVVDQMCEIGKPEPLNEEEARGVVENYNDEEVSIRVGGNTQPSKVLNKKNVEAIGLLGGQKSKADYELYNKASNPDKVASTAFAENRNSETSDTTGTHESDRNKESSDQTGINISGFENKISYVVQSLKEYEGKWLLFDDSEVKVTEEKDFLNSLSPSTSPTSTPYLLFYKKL
Chain of USP1/UAF1 enzyme (Q8TAF3 whole entry partner): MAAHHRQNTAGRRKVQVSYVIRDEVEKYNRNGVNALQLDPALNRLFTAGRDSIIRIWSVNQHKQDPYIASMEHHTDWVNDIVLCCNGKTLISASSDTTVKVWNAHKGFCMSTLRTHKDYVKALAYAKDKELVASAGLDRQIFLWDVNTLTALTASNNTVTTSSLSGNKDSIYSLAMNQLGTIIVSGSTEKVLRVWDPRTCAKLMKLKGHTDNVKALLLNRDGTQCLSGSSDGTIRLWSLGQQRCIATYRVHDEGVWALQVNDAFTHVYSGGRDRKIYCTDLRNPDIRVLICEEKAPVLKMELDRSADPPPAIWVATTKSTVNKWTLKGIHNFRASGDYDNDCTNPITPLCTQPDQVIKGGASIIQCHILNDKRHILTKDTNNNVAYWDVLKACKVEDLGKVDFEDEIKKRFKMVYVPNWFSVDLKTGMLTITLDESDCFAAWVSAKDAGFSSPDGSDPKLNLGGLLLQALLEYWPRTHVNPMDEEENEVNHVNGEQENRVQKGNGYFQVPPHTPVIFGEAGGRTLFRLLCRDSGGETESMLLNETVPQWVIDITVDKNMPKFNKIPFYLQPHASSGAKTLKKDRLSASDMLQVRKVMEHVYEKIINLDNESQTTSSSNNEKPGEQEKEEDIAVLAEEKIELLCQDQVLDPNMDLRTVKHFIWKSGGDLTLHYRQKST

A word on the IC50: it is the concentration at which inhibition is half-maximal. The half-life is the time in which the quantity being followed falls by half. Low values mean fast loss, high ones slow loss. In general, solubility refers to how much of the substance goes into solution per volume. On to `COc1cccnc1-c1ccc(CN2C(=O)CCn3nc(-c4c(Cl)cnn4C(C)C)cc32)cc1` [Example 305], for which the IC50 on USP1/UAF1 enzyme is < 100 nM; in data set [3] (Homo sapiens, ES-2), 100 to 500 nM. For the same compound, the half-life at 1 μM in data set [1] and in data set [4] was < 25 min throughout. Further, the solubility at 24 h in data set [2] (setting [5]) is ≥ 10 µM; in data set [2] (setting [6]), < 10 µM.

With `COc1cccc(C)c1-c1cc2n(n1)CCC(=O)N2Cc1ccc(-c2nc(C(F)(F)F)cn2C)cc1` [Example 75, 2-(2-methoxy-6-methylphenyl)-4-(4-(1-methyl-4-(trifluoromethyl)-1H-imidazol-2-yl)benzyl)-6,7-dihydropyrazolo[1,5-α]pyrimidin-5(4H)-one], the IC50 was < 100 nM on USP1/UAF1 enzyme and 100 to 500 nM in data set [3] (Homo sapiens, ES-2). Moreover, the half-life at 1 μM in data set [1] and in data set [4] was < 25 min throughout. The values for the solubility at 24 h in data set [2] (setting [5]) and in data set [2] (setting [6]) were ≥ 10 µM and < 10 µM, respectively.

As for `CCn1cc(C(F)(F)F)nc1-c1ccc(CN2CCCn3nc(-c4c(OC)ncnc4C4CC4)cc32)cc1F` [Example 64], the IC50 at USP1/UAF1 enzyme was < 100 nM; in data set [3] (Homo sapiens, ES-2) it was < 100 nM. For the same compound, the half-life at 1 μM in data set [1] and in data set [4] was < 25 min throughout. For the same compound, the solubility at 24 h in data set [2] (setting [5]) was ≥ 10 µM; in data set [2] (setting [6]) it was < 10 µM.

Consider `COc1ncnc(C2CC2)c1-c1nc2n(n1)CCC(=O)N2C(C)c1ccc(-c2nc(C(F)(F)F)cn2C(C)C)cc1` (centres unmarked) [Example 169], for which the IC50 is < 100 nM on USP1/UAF1 enzyme and 100 to 500 nM in data set [3] (Homo sapiens, ES-2). The half-life at 1 μM in data set [1] and in data set [4] was > 25 min throughout. Further, the solubility at 24 h is ≥ 10 µM in data set [2] (setting [5]) and < 10 µM in data set [2] (setting [6]).

In the case of `CCn1cc(C(F)(F)F)nc1-c1ccc([C@@H](C)N2C(=O)CCn3nc(-c4c(OC)ncnc4C4CC4)cc32)cc1F` [Example 143], the IC50 was < 100 nM at USP1/UAF1 enzyme and < 100 nM in data set [3] (Homo sapiens, ES-2). The half-life at 1 μM in data set [1] and in data set [4] was > 25 min in each case. Moreover, the solubility at 24 h in data set [2] (setting [5]) and in data set [2] (setting [6]) was ≥ 10 µM in each case.

Take `CCn1cc(C(F)(F)F)nc1-c1ccc(NC2CCCc3nn(-c4ccccc4C(C)C)cc32)cc1F` (centres unmarked) [Example 355, N-(4-(1-ethyl-4-(trifluoromethyl)-1H-imidazol-2-yl)-3-fluorophenyl)-2-(2-isopropylphenyl)-4,5,6,7-tetrahydro-2H-indazol-4-amine]: the IC50 on USP1/UAF1 enzyme is < 100 nM; in data set [3] (Homo sapiens, ES-2), 100 to 500 nM. The half-life at 1 μM in data set [1] and in data set [4] was < 25 min each time. For the same compound, the solubility at 24 h in data set [2] (setting [5]) and in data set [2] (setting [6]) was < 10 µM in each case.

With `CCn1cc(C(F)(F)F)nc1-c1ccc(CC2OCCn3nc(-c4c(Cl)cnn4C(C)C)cc32)cc1` (centres unmarked) [Example 265, 2-(4-chloro-1-isopropyl-1H-pyrazol-5-yl)-4-(4-(1-ethyl-4-(trifluoromethyl)-1H-imidazol-2-yl)benzyl)-6,7-dihydro-4H-pyrazolo[5,1-c][1,4]oxazine], the IC50 is < 100 nM at USP1/UAF1 enzyme and 100 to 500 nM in data set [3] (Homo sapiens, ES-2). The half-life at 1 μM in data set [1] and in data set [4] was < 25 min in each case. Besides, the solubility at 24 h in data set [2] (setting [5]) and in data set [2] (setting [6]) was < 10 µM throughout.

As for `CCn1cc(C(F)(F)F)nc1-c1ccc(C(C)N2C(=O)CCn3nc(-c4c(Cl)cnn4C(C)C)cc32)cc1F` (centres unmarked) [Example 119], the IC50 is < 100 nM on USP1/UAF1 enzyme and < 100 nM in data set [3] (Homo sapiens, ES-2). The half-life at 1 μM was < 25 min in data set [1] and > 25 min in data set [4]. Besides, the solubility at 24 h in data set [2] (setting [5]) and in data set [2] (setting [6]) was < 10 µM in each case.

Consider `CCn1cc(C(F)(F)F)nc1-c1ccc(C(C)N2C(=O)CCn3nc(-c4c(OC)ncnc4C4CC4)cc32)cc1F` (centres unmarked) [Example 120], for which the IC50 was < 100 nM at USP1/UAF1 enzyme and < 100 nM in data set [3] (Homo sapiens, ES-2). Also, the half-life at 1 μM in data set [1] and in data set [4] was > 25 min each time. For the same compound, the solubility at 24 h in data set [2] (setting [5]) and in data set [2] (setting [6]) was < 10 µM throughout.

For the compound `CCn1cc(C(F)(F)F)nc1-c1ccc([C@@H](C)N2CCCn3nc(-c4c(Cl)cnn4C(C)C)cc32)cc1` (single isomer, unassigned) [Example 68], the IC50 was < 100 nM at USP1/UAF1 enzyme and < 100 nM in data set [3] (Homo sapiens, ES-2). Besides, the half-life at 1 μM in data set [1] and in data set [4] was < 25 min throughout. Besides, the solubility at 24 h in data set [2] (setting [5]) and in data set [2] (setting [6]) was < 10 µM each time.

In the case of `COc1cccc(C)c1-c1cc2n(n1)CCCN2Cc1ccc(-c2nc(C(F)(F)F)cn2C)cc1` [Example 74, 2-(2-methoxy-6-methylphenyl)-4-(4-(1-methyl-4-(trifluoromethyl)-1H-imidazol-2-yl)benzyl)-4,5,6,7-tetrahydropyrazolo[1,5-α]pyrimidine], the IC50 at USP1/UAF1 enzyme was < 100 nM; in data set [3] (Homo sapiens, ES-2), > 500 nM. Further, the half-life at 1 μM in data set [1] and in data set [4] was < 25 min in each case. The solubility at 24 h in data set [2] (setting [5]) is ≥ 10 µM; in data set [2] (setting [6]), < 10 µM.

Turning to `Cc1cnn(C(C)C)c1-c1cc2n(n1)CCCN2Cc1ccc(-c2nc(C(F)(F)F)cn2C)cc1` [Example 47, 2-(1-isopropyl-4-methyl-1H-pyrazol-5-yl)-4-(4-(1-methyl-4-(trifluoromethyl)-1H-imidazol-2-yl)benzyl)-4,5,6,7-tetrahydropyrazolo[1,5-α]pyrimidine], the IC50 (at USP1/UAF1 enzyme; in data set [3]) was < 100 nM each time. Also, in data set [2] (PBS pH 2.0, 25° C., 24 hours), the “Solubility at pH 2.0 (μM)” value was “++ (“++” indicates 10 μM or greater)”. The “Solubility at pH 7.4 (μM)” value in data set [2] (PBS pH 7.4, 25° C., 24 hours) is reported as “+ (“+” indicates less than 10 μM)”.

On to `CCn1cc(C(F)(F)F)nc1-c1ccc(CN2C(=O)CCn3nc(-c4c(Cl)cnn4C(C)(C)COC)cc32)cc1F` [Example 162], for which the IC50 is < 100 nM at USP1/UAF1 enzyme and 100 to 500 nM in data set [3] (Homo sapiens, ES-2). In data set [1], the half-life at 1 μM was < 25 min. The solubility at 24 h in data set [2] (setting [5]) and in data set [2] (setting [6]) was ≥ 10 µM each time.

As to `COc1ncnc(C2CC2)c1-c1cc2n(n1)CCC(=O)N2Cc1ccc(-n2nc(C#N)cc2OC)c(F)c1` [Example 8, (4-((2-(4-cyclopropyl-6-methoxypyrimidin-5-yl)-5-oxo-6,7-dihydropyrazolo[1,5-a]pyrimidin-4(5H)-yl)methyl)-2-fluorophenyl)-5-methoxy-1H-pyrazole-3-carbonitrile], the IC50 at USP1/UAF1 enzyme is 100 to 500 nM. In addition, the half-life at 1 μM in data set [1] and in data set [4] was > 25 min each time. In addition, the solubility at 24 h in data set [2] (setting [5]) was ≥ 10 µM; in data set [2] (setting [6]) it was < 10 µM.
